Broadly, the IC50 is the concentration that gives 50% inhibition. A low value points to higher potency.

The values below come from patent US11878972B2, “Treatment of neurological disorders” (TORQUR AG, priority 2016, dated 2024).

The target in test [1] is T1, N-terminally GST-tagged mTOR (truncated version: amino acids 1360-2549) (Homo sapiens, UniProt P42345).
T1 construct: truncated version: amino acids 1360-2549; purchased Life Technologies PR8683B
In words: In vitro mTOR binding assay (LanthaScreen TR-FRET). As to conditions: 3 nM GST-mTOR, 10 nM Tracer 314, 30 min at RT.
Procedure: A 10-point 4-fold serial dilution (highest concentration at 10 μmol/L and lowest concentration at 40 pmol/L) of each compound was tested for mTOR binding in duplicate in a 384-well plate. […] After 30 min incubation at RT, time-resolved FRET was measured with a Synergy 4 multi-mode microplate reader (Biotek Instruments) using the following settings: 100 microsecs delay before data collection, 200 microsecs time for data collection, 10 measurements per data point.
IC50 values of each compound were determined by plotting the emission ratio versus the compound concentrations (in logarithmic scale) and then by fitting a sigmoidal dose-response curve with variable slope to the data using GraphPad™ Prism.

The test system of test [2] is pPKB S473 in A2058 cells. The test is described as follows: In-cell Western blot, pPKB S473. It counts as cell-based. As to conditions: Homo sapiens, treated for 1 hour, normalized to α-tubulin.
Procedure: (§1) Cells are fixed with 4% paraformaldehyde for 30 minutes at room temperature, washed 2 times with 1% BSA in PBS, permeabilized with 0.1% Triton X-100 in PBS/1% BSA for 30 minutes at room temperature and blocked with 5% goat serum in PBS/1% BSA/0.1% Triton X-100 for 30 minutes at room temperature. […] Cells are washed 3 times 5 minutes with PBS/1% BSA/0.1% triton and plate scanned with the Odyssey Infrared Scanning system using both 700 and 800 nm channels. […] To correct for background staining in the data analysis wells are treated only with secondary antibodies.
(§2) For data analysis the mean background signal from channel 700 nm and 800 nm are subtracted from each signal in channel 700 nm and 800 nm, respectively.
(§3) IC50 values of each compound are determined by plotting the normalized pPBK S473 and pS6 S235/S236 signals, respectively, versus the compound concentrations (in logarithmic scale) and then by fitting a sigmoidal dose-response curve with variable slope to the data using GraphPad™ Prism.
For test [3], the system named is pS6 S235/S236 in A2058 cells. In words: In-cell Western blot, pS6 S235/S236. It counts as cell-based. The conditions noted are these: Homo sapiens, treated for 1 hour, normalized to α-tubulin.
Procedure: as §1, §2, §3
Test [4] relates to S6 phosphorylation (S235/236). The test is described as follows: mTOR signaling in brain samples of pilocarpine pre-treated and naïve mice (western blot). As to conditions: for decrease of S6 phosphorylation (S235/236) versus control: brain, 3 hours after single oral dose: Cpd. 3 40 mg/kg, Cpd. 8 25 mg/kg, everolimus 5 mg/kg. It is filed as in vivo, mouse. How it is done:
A ramping-up dosing protocol was used which has the advantage that pilocarpine can be individually applied according to the susceptibility of each mouse. Pilocarpine (Sigma-Aldrich, Germany) was administered to female NMRI mice intraperitoneally at a dose of 100 mg/kg (Pilo-SE group). […] To reduce peripheral side effects of pilocarpine, methylscopolamine (Sigma-Aldrich, Germany) was administered 30 minutes prior to the first injection of pilocarpine. Animals were continuously monitored and duration of convulsive SE was registered [referred to Racine's scale. SE onset was defined as continuous ongoing seizure activity following occurrence of one or two generalized tonic-clonic seizures [stage 4 or 5 on the Racine scale]. SE was characterized by head nodding in an upright (sitting) body position, Straub tail, and slight to moderate convulsions of forelimbs, sometimes interrupted by further generalized tonic-clonic seizures. In order to reduce mortality, SE was terminated by diazepam (10 mg/kg i.p.; diazepam-ratiopharm 10, injection solution) 90 min after SE onset. […] In the sham-SE group mice were treated with the same treatment scheme as the pilo-SE group but pilocarpine was replaced by 0.9% sodium chloride solution. The mortality in the pilo-SE model in mice is relatively high (overall about 50%) and can vary markedly between experimental groups/days. Therefore we had to start with a large number of mice for SE induction in order to reliably obtain a group size of 20-22 animals for the MEST.
Brain samples from pilocarpine treated mice and untreated mice were snap frozen and tissue was lysed in buffer containing 25 mM Tris-HCl, pH 8, 50 mM NaCl, 0.5% (w/v) sodium deoxycholate (DOC), and 0.5% (w/v) Triton X-100 and supplemented with complete protease inhibitor (Roche, Mannheim, Germany) and Phosphostop (NEB, USA). Disruption of cell lysates was performed by drawing up the cell suspension twenty times into a syringe with a small gauge needle (21 G) on ice. Protein concentrations in the lysates were determined by using the Pierce BCA Protein Assay kit (Thermo Scientific, Bonn, Germany) according to the manufacturer's instructions. […] Membranes were incubated with primary antibodies anti S6 1:1000, anti S6 Phospho Serin (240/244) 1:1000, anti S6 Phospho Serin (235/236) 1:2000 (NEB) and anti-Actin 1:100 (Sigma-Aldrich) for 1 h in 2% milk in PBST at room temperature (RT) and washed three times for 10 min in PBS-T. Secondary antibodies anti-rabbit-HRP 1:1000 (Dako, Hamburg, Germany) were incubated for 1 h in 2% milk in PBST at RT and washed three times for 10 min in PBST. Proteins were detected by enhanced chemiluminescence using SuperSignal West Femto Chemiluminescent Substrate (Thermo Scientific) and the ChemiDoc system (Bio-Rad, Munich, Germany) with QuantityOne software (Bio-Rad) according to the manufacturer's protocol. Relative protein expressions were quantified densitometrically with QuantityOne (Bio-Rad) software and calculated by normalization to the reference signals of actin with GraphPad Prism software (GraphPad, San Diego, CA, USA).
Pilocarpine pre-treated and naïve mice were treated with a single oral dose of Cpd. 3 (40 mg/kg), Cpd. 8 (25 mg/kg), everolimus (5 mg/kg) or vehicle. 5 mice per group were utilized and sacrificed after 3 hours.
(In general: Immunoblotting shows a protein as a band on a membrane.)

In test [5] the test system is female NMRI mice, nonepileptic (sham-SE) and epileptic (pilo-SE). The test is described as follows: Maximal electroshock seizure threshold test (MEST). It is filed as in vivo, mouse. As to conditions: pretreatment 3 h. How it is done:
A total of 166 adult female NMRI mice were used obtained from Charles River (Sulzfeld, Germany) at a weight range of 21-25 g (mice). Animals were kept under the following conditions: Housing: Animals were housed in groups of max. 8 mice under controlled conditions (temperature: 22±1° C.; humidity: 50% 60%/), under a 12-h light-dark cycle (lights on at 6:00 a.m.). Feeding: Standard laboratory chow (Altromin 1324 standard diet, Altromin Spezialfutter GmbH, Lage, Germany) was provided ad libitum. Drinking water: Tap water was provided ad libitum.
The MEST determines a population seizure threshold in groups of ˜20 animals and not the threshold for an individual animal. In the present study, the MEST was determined by a staircase procedure as previously described. A stimulator (BMT Medizintechnik, Berlin, Germany) that delivered a constant current (adjustable from 1-200 mA regardless of the impedance of the animal) with sinusoidal pulses (50/sec) for 0.2 sec was used.
Current administration was performed via bilateral transcorneal stimulation (using copper electrodes). Before transcorneal stimulation, a drop of tetracaine solution (2%) was administered to the eyes of the mouse for local anesthesia. Two minutes later, the mouse was restrained by hand to press the copper electrodes on both corneas while the stimulus was applied by stepping on a foot pedal switch connected with the stimulator. Electrodes were covered with soft leather and soaked with saline before each current application. […] The first stimulation was started with a current near to the control threshold.
3 (HCl): 40/100 mg in 10 ml (Suspension; 5% PEG 400 and 2% Tween 80, HPBCD (10%6)) • Cpd. 8 (HCl): 12.5/25 mg in 10 ml (5% PEG 400 and 2% Tween 80, HPBCD (10%))
Statistical analysis were calculated using Student's t-test. All tests were used two-sided; a P<0.05 was considered significant.
We performed no special tests for the determination of adverse effects. Mice were observed about 30 min after injection in their home cages for obvious sedation or reduction of wellbeing. Five minutes before electrical stimulation mice were again observed in their home cages and two minutes before stimulation during handling procedure for treatment with local anaesthesia. Every obvious variation from normal behavior was noted. Only phenobarbital induced noticeable sedation which lasted for more than 60 min. All other test drugs (including vehicle solutions) were tolerated without any obvious adverse effects.
(In the maximal electroshock model the usual endpoint is tonic extension of the hind limbs.)

Each structure is given as a SMILES string.

T1 sequence (P42345 1360-2549): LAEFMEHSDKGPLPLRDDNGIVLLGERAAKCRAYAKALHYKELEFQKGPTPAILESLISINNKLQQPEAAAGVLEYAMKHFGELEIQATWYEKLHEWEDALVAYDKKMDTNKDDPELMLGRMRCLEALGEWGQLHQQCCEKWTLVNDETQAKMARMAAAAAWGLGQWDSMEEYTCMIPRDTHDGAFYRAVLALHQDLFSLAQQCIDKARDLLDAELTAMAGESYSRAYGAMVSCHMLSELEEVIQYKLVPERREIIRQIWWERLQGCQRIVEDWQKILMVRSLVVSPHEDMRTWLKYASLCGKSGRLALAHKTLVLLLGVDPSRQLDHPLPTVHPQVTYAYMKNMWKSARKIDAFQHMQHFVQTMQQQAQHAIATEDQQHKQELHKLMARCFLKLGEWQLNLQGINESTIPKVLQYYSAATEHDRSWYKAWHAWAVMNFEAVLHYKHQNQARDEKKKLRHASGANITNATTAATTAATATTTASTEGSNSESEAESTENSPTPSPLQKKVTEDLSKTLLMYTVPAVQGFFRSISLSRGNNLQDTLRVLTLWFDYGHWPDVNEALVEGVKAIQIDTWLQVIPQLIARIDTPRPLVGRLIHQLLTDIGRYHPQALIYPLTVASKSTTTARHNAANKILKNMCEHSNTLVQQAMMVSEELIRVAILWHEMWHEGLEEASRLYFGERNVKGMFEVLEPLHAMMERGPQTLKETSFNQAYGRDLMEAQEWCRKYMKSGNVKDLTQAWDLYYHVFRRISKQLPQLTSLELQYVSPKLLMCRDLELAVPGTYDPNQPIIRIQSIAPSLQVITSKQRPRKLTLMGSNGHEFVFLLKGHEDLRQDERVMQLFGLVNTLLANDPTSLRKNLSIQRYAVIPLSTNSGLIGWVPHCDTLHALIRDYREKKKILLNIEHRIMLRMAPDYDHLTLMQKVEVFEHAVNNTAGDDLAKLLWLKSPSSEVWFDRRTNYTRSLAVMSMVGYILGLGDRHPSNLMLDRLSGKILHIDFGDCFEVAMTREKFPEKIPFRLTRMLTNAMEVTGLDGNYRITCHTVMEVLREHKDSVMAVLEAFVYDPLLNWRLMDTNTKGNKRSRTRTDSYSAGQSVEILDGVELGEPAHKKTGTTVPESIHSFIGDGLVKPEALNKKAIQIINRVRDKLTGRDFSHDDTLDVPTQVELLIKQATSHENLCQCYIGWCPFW

In turn, `Nc1cc(C(F)(F)F)c(-c2nc(N3CCNCC3)nc(N3CCOCC3)n2)cn1` showed an IC50 in test [1] of 796 nM.
Still for that read-out and setting: the same measure for `Nc1ncc(-c2nc(N3CCNCC3)nc(N3CCOCC3)n2)c(C(F)(F)F)n1`: 2830 nM.
For `Nc1cc(C(F)(F)F)c(-c2nc(N3CCOCC3)nc(N3CCSCC3)n2)cn1`, the IC50 in test [1] came out at 118 nM.
The compound `Nc1ncc(-c2nc(N3CCOCC3)nc(N3CCSCC3)n2)c(C(F)(F)F)n1` came in with an IC50 in test [1] of 394 nM.
Consider `C[C@@H]1COCCN1c1nc(-c2cnc(N)cc2C(F)F)nc(N2[C@@H](C)COC[C@@H]2C)n1` [Compound 79, 4-(difluoromethyl)-5-[4-[(3S,5S)-3,5-dimethylmorpholin-4-yl]-6-[(3R)-3-methylmorpholin-4-yl]-1,3,5-triazin-2-yl]pyridin-2-amine], for which the IC50 in test [2] (A2058, 1 h) is 200 nM; in test [3] (A2058, 1 h), 136 nM.
In the case of `C[C@H]1COC[C@H](C)N1c1nc(-c2cnc(N)cc2C(F)F)nc(N2[C@@H](C)COC[C@@H]2C)n1` [Compound 83, 5-[4,6-bis[(3S,5S)-3,5-dimethylmorpholin-4-yl]-1,3,5-triazin-2-yl]-4-(difluoromethyl)pyridin-2-amine], the IC50 in test [2] was determined as 379 nM; in test [3], 294 nM.
With `C[C@@H]1COCCN1c1nc(-c2cnc(N)cc2C(F)F)nc(N2CCOCC23CCC3)n1` [Compound 88, 4-(difluoromethyl)-5-[4-[(3R)-3-methylmorpholin-4-yl]-6-(8-oxa-5-azaspiro[3.5]nonan-5-yl)-1,3,5-triazin-2-yl]pyridin-2-amine], the IC50 in test [2] (A2058, 1 h) is 271 nM; in test [3] (A2058, 1 h), 192 nM.
`CO[C@H]1C[C@@H]2CC[C@@H](C)[C@@](O)(O2)C(=O)C(=O)N2CCCC[C@H]2C(=O)O[C@H]([C@H](C)C[C@@H]2CC[C@@H](OCCO)[C@H](OC)C2)CC(=O)[C@H](C)/C=C(\C)[C@@H](O)[C@@H](OC)C(=O)[C@H](C)C[C@H](C)/C=C/C=C/C=C/1C` [everolimus, reference compound]: in test [4] (epileptic (pilocarpine pre-treated) mice), the “decrease of S6 phosphorylation (S235/236) versus control” value is “No significant changes”. For the same compound, in test [4] (epileptic/pilocarpine pre-treated and naïve mice, single oral dose), the “S6 phosphorylation / mTOR signaling in brain (FIG. 3B)” value was “did not show significant mTOR signaling inhibition in brain”. Besides, the “decrease of S6 phosphorylation (S235/236) versus control” value in test [4] (naïve mice) was “No significant changes”. In test [5] (5 mg/kg everolimus p.o.), the “Threshold difference between nonepileptic and epileptic” value amounted to 20%; the “Threshold difference between vehicle and drug threshold, epileptic” value is given as 16%; the “Threshold difference between vehicle and drug threshold, nonepileptic” value turned out to be 13%. In test [5] (10 mg/kg everolimus p.o.), the “Threshold difference between nonepileptic and epileptic” value is given as 1%; the “Threshold difference between vehicle and drug threshold, nonepileptic” value turned out to be 10%.
Take `C[C@H]1COCCN1c1nc(-c2cnc(N)cc2C(F)(F)F)nc(N2CCOCC2)n1` [reference compound]: the IC50 in test [2] stood at 196 nM; in test [3], 90 nM.
Regarding `C[C@H]1COCCN1c1nc(-c2cnc(N)nc2C(F)(F)F)nc(N2CCOCC2)n1` [reference compound], the IC50 in test [2] is 91 nM; in test [3] it was 164 nM.
With `Nc1cc(C(F)(F)F)c(-c2nc(N3CCOCC3)cc(N3CCOCC3)n2)cn1` [reference compound], the IC50 in test [2] is 555 nM; in test [3] (A2058, 1 h) it was 665 nM.
